Reference: patent US20250319139A1, “METHODS FOR TREATING NEUROINFLAMMATION” (University of Virginia Patent Foundation, priority 2021, published 2025)
One block for each molecule: values may come before it.

How the values were obtained:
[1] = tested on: gut microbiota; conditions: 300 mg/kg intraperitoneal once daily for 5 consecutive days; previous study [20]; cited from earlier work
[2] = tested on: C57BL/6J mice; assay: Barnes maze test, young adult mice; assay type: in vivo, mouse; conditions: surgery mice; intracerebroventricular 10 μg/kg at 0, 24, 48 and 72 h after surgery; vs solvent
[3] = tested on: C57BL/6J mice; assay: Novel object recognition test, young adult mice; assay type: in vivo, mouse; conditions: surgery mice; intracerebroventricular 10 μg/kg at 0, 24, 48 and 72 h after surgery; vs solvent
[4] = tested on: IL-17; assay: ELISA of IL-17 in the brain; assay type: in vivo, mouse; conditions: mice without MCAO; 1 mg/kg by gastric gavage after each valeric sodium 100 mg/kg intraperitoneal injection, 7 days
Experimental: (§1) Mice were weighed and anesthetized with isoflurane at 24 h after MCAO. Blood samples were obtained from the right heart after thoracotomy. Blood was centrifuged (13,000 g, 4° C.) after it had been placed at 4° C. for 2 h for the collection of serum. After the collection of blood, mice were perfused with 4° C. saline for brain tissue harvesting. The cerebral cortex (anteroposterior: −1.5 to 2.5 mm, mediolateral: 1.0 to 3.0 mm) was dissected out. All dissection procedures were performed on ice.
(§2) IL-10, IL-17, IL-1β and IL-6 in the serum and brain were detected by using ELISA kits (catalog number: M1000B, M1700, MLB00C and D6050, R&D SYSTEM, Inc., Minneapolis, MN, USA) as we described before. The brain tissues were homogenized on ice in the RIPA buffer containing 25 mM Tris-HCl with pH 7.6, 150 mM NaCl, 1% sodium deoxycholate and 0.1% SDS (catalog number: 89901, Thermo Scientific, Rockford, IL, USA) and a protease inhibitor cocktail containing 10 mg/ml aproteinin, 5 mg/ml peptastin, 5 mg/ml leupetin and 1 mM phenylmethane sulfonylfluoride (catalog number: SRE0055, Sigma-Aldrich, St. Louis, MO, USA). The supernatant was collected for ELISA detection after being centrifuged for 20 min (13,000 g, 4° C.) and the protein concentration was determined by the BCA method. Cytokines in the serum and supernatant of brain were detected according to the manufacturer's instruction. The amount of IL-10, IL-17, IL-1β and IL-6 in each sample in the brain was normalized by its protein content.

[5] = tested on: IL-17; assay: ELISA of IL-17 in the serum; assay type: in vivo, mouse; conditions: mice without MCAO; 1 mg/kg by gastric gavage after each valeric sodium 100 mg/kg intraperitoneal injection, 7 days
Experimental: as §1, §2

[6] = tested on: IL-6; assay: ELISA of IL-6 in the brain; assay type: in vivo, mouse; conditions: young mice, 100 mg/kg intraperitoneal 1 h before and 6 h after 120-min MCAO; 24 h after MCAO; vs saline
Experimental: as §2, with “Mice were weighed and anesthetized with isoflurane at 24 h after MCAO. Blood samples were obtained from the right heart after thoracotomy. Blood was centrifuged (13,000 g, 4° C.) after it had been placed at 4° C. for 2 h for the collection of serum. After the collection of blood, mice were perfused with 4° C. saline for brain tissue harvesting. The cerebral cortex (anteroposterior: -1.5 to 2.5 mm, mediolateral: 1.0 to 3.0 mm) was dissected out. All dissection procedures were performed on ice. IL-10,” for “IL-10,”, “[…],” for “peptastin,”, “The amount of IL-10, IL-17, IL-1β and IL-6 in each sample in the brain was normalized by its protein content.” left out

[7] = tested on: C57BL/6J mice; assay: Neurological deficit scores after MCAO; assay type: in vivo, mouse; conditions: young mice, 100 mg/kg intraperitoneal 1 h before and 6 h after 120-min MCAO; 24 h after MCAO; vs saline
Experimental: (§3) As we described previously, left MCAO with intravascular suture technique was performed to mice. Briefly, mice were anesthetized with isoflurane and the rectal temperature was maintained at 37±0.5° C. by the feedback-controlled heating system. A monofilament nylon suture (catalog number: 1622-A1, Beijing CiNontech Co. Ltd., Beijing, China) was used to induce the MCAO via the external carotid artery to the left internal carotid artery until slight resistance was felt. Mice were re-anesthetized by isoflurane and the sutures were removed at 60 min (only for the set of experiments of old mice with fecal transplantation; this selection was because of a high mortality rate after a longer MCAO) or 120 min (for all other sets of experiments) after the onset of MCAO.
Neurological deficit scores were tested 24 h after the stroke by a blinded investigator [25, 26]. Briefly, mice were scored as follows: zero, no apparent deficits; one, failure to extend right forepaw fully; two, decreased grip of the right forelimb; three, spontaneous movement in all directions, contralateral circling only if pulled by the tail; four, circling or walking to the right; five, walking only if stimulated; six, unresponsiveness to stimulation and with depressed level of consciousness; and seven, dead.

[8] = tested on: C57BL/6J mice; assay: Infarct volume after MCAO; assay type: in vivo, mouse; conditions: young mice, 100 mg/kg intraperitoneal 1 h before and 6 h after 120-min MCAO; 24 h after MCAO; vs saline
Experimental: As we described previously, left MCAO with intravascular suture technique was performed to mice. Briefly, mice were anesthetized with isoflurane and the rectal temperature was maintained at 37±0.5° C. by the feedback-controlled heating system. A monofilament nylon suture (catalog number: 1622-A1, Beijing CiNontech Co. Ltd., Beijing, China) was used to induce the MCAO via the external carotid artery to the left internal carotid artery until slight resistance was felt. […]
The infarct volumes were assessed 24 h after MCAO by a blinded investigator after 2,3,5-triphenyltetrazolium chloride staining. […] The average infarct area of the rostral and caudal sides of each slice was calculated. The infarct volume of the brain slice was calculated by multiplying the average infarct area of the slice by the thickness of the slice. […] To correct the cerebral edema and differential shrinkage resulting from brain ischemia and tissue processing, the corrected brain infarct volume was calculated: corrected brain infarct volume in percentage=[right hemisphere volume-(left hemisphere volume-left infarction volume)]×100/right hemisphere volume.

[9] = tested on: C57BL/6J mice; assay: Rotarod test after MCAO; assay type: in vivo, mouse; conditions: young mice, 100 mg/kg intraperitoneal 1 h before and 6 h after 120-min MCAO; 24 h after MCAO; vs saline
Experimental: as §3
Rotarod test was performed to evaluate the motor coordination as we described before. All mice received the training for three continuous days before the induction of brain ischemia. The formal test was performed just 24 h before and 24 h after the MCAO. […] The latency and the speed were recorded when the tested mice fell off the rod. […] The speed-latency index, which is latency(s)×speed (rpm), was calculated. The ratio of mean index of the five trials obtained after MCAO and before MCAO was calculated to reflect the change in coordinate function of each mouse.

[10] = tested on: IL-1β; assay: ELISA of IL-1β in the brain; assay type: in vivo, mouse; conditions: young mice, 100 mg/kg intraperitoneal 1 h before and 6 h after 120-min MCAO; 24 h after MCAO; vs saline
Experimental: as §2, with “Mice were weighed and anesthetized with isoflurane at 24 h after MCAO. Blood samples were obtained from the right heart after thoracotomy. Blood was centrifuged (13,000 g, 4° C.) after it had been placed at 4° C. for 2 h for the collection of serum. After the collection of blood, mice were perfused with 4° C. saline for brain tissue harvesting. The cerebral cortex (anteroposterior: -1.5 to 2.5 mm, mediolateral: 1.0 to 3.0 mm) was dissected out. All dissection procedures were performed on ice. IL-10,” for “IL-10,”, “[…],” for “peptastin,”, “The amount of IL-10, IL-17, IL-1β and IL-6 in each sample in the brain was normalized by its protein content.” left out

[11] = Valeric acid in the blood by ELISA (pilot dosage experiment); assay type: in vivo, mouse; conditions: young mice, 100 mg/kg intraperitoneal twice at an interval of 7 h; blood 3 h after second injection; pilot study
Experimental: A pilot experiment was performed to determine the dosage of valeric acid used in this study. Eight-week old mice were divided into two groups: Y-Saline group that received two intraperitoneal 100 μl normal saline injections at an interval of 7 h, and Y-Valeric group that received two intraperitoneal 100 mg/kg in 100 μl valeric sodium injections at an interval of 7 h. One group of 18-month old mice that was labeled O-Saline received two intraperitoneal 100 μl normal saline injections at an interval of 7 h. Blood was harvested 3 h after the second injection of valeric sodium or normal saline to measure valeric acid.
Valeric acid in the blood harvested from the experiment to determine the dosage of valeric acid injected intraperitoneally was measured by using an ELISA kit (catalog number: JM-12270M1, Jingmei Biotechnology, Jiangsu, China) following the manufacturer's instructions.

[12] = tested on: C3; assay: C3 in the hippocampus by ELISA; assay type: in vivo, mouse; conditions: intracerebroventricular injection at surgery; hippocampus 48 h after surgery
Experimental: (§4) IL-1β, IL-6, C3 and GDNF in the hippocampus were detected by using ELISA kits. For testing the IL-1β, IL-6 and GDNF, brain tissues were homogenized on ice in the RIPA buffer containing 25 mM Tris-HCl with pH 7.6, 150 mM NaCl, 1% sodium deoxycholate, 0.1% SDS and a protease inhibitor cocktail containing 10 mg/ml aproteinin, 5 mg/ml peptastin, 5 mg/ml leupetin and 1 mM phenylmethane sulfonylfluoride. For C3 testing, brain tissues were homogenized on ice in the PTR buffer (supplied in the kit). The supernatant was collected for ELISA detection after the homogenate was centrifuged at 13,000 g for 20 min at 4° C. and the protein concentration was determined by the BCA protein assay (Bio-Rad, Hemel Hempstead, Herts, UK). IL-1β, IL-6, C3 and GDNF in supernatant of brain were detected according to the manufacturer's instruction for ELISA, and the amount of them in each sample in the brain was normalized by its total protein content and was expressed as pg/mg protein.

[13] = tested on: IL-6; assay: IL-6 in the hippocampus by ELISA; assay type: in vivo, mouse; conditions: intracerebroventricular injection at surgery; hippocampus 48 h after surgery
Experimental: as §4

[14] = tested on: IL-1β; assay: IL-1β in the hippocampus by ELISA; assay type: in vivo, mouse; conditions: intracerebroventricular injection at surgery; hippocampus 48 h after surgery
Experimental: as §4

Molecule: Cc1nnc(SCC2=C(C(=O)O)N3C(=O)[C@@H](NC(=O)Cn4cnnn4)[C@H]3SC2)s1 [cefazolin]
gut microbiota in the colon by 16S rRNA analyses [1]: almost undetectable level

Molecule: NC(N)=NCCC[C@H](NC(=O)COCC(c1ccccc1)c1ccccc1)C(=O)O [SB290157]
time to identify target box in Barnes maze [2]: took less time
performance in novel object recognition test [3]: improved the performance

Molecule: C[C@]1(C(=O)N(CCCC(=O)O)Cc2cccc(Cl)c2)CCN1C(=O)c1csc2ccccc12 [GLPG-0974]
increase of IL-17 in the brain (cerebral cortex) caused by valeric acid [4]: blocked the increase
increase of IL-17 in the blood caused by valeric acid [5]: blocked the increase

concentrations of valeric acid in the blood [11]: a level similar to that in the old mice
Molecule: CCCCC(=O)[O-].[Na+] [valeric sodium]
IL-6 in the ischemic penumbral brain tissues [6]: increased
neurological deficit scores [7]: worse
infarct volume [8]: larger
performance on rotarod [9]: poorer performance
IL-1β in the ischemic penumbral brain tissues [10]: increased

B1: GDNF: recombinant mouse GDNF (glia-derived nerve factor) (protein, UniProt P48540 78-211, looked up)
Glial cell line-derived …: SPDKQAAALPRRERNRQAAAASPENSRGKGRRGQRGKNRGCVLTAIHLNVTDLGLGYETKEELIFRYCSGSCESAETMYDKILKNLSRSRRLTSDKVGQACCRPVAFDDDLSFLDDNLVYHILRKHSAKRCGCI
C3 levels in the hippocampus after surgery [12]: reduced
IL-6 levels in the hippocampus after surgery [13]: reduced
IL-1β levels in the hippocampus after surgery [14]: reduced

B2: heat-inactivated GDNF: heat-denatured (5 min at 100° C.) GDNF solution (protein, UniProt P48540 78-211, looked up)
Glial cell line-derived …: SPDKQAAALPRRERNRQAAAASPENSRGKGRRGQRGKNRGCVLTAIHLNVTDLGLGYETKEELIFRYCSGSCESAETMYDKILKNLSRSRRLTSDKVGQACCRPVAFDDDLSFLDDNLVYHILRKHSAKRCGCI
modifications: heat-denatured
notes: heat-denatured (5 min at 100° C.) GDNF solution
C3 levels in the hippocampus after surgery [12]: not
IL-6 levels in the hippocampus after surgery [13]: not
